Test results published in patent US12377077B2, “Methods and formulations to treat mitochondrial dysfunction” (The Board of Trustees of the Leland Stanford Junior …, priority 2018, dated 2025).
Entries after “also recorded” stand apart in the source; their conditions may differ.

What was measured:
[1] = tested on: POLG deficient fibroblasts; assay: ROS levels, CellROX Deep Red Flow Cytometry Assay; type: cell-based, human; details: PT1 72 hrs vs DMSO
Method: (§1) Methods: SURF1, POLG, and NGLY1 patient cells were supplemented with PT1 or DMSO (untreated control) for 48 hrs (n=3) and ATP levels measured by the CellTiter-Glo ATP Assay or for 72 hrs (n=3) and ROS levels were measured by the CellROX Deep Red Flow Cytometry Assay. Results were normalized to total protein concentration. Data are represented as the mean±standard error of the mean. Statistical significance was measured to p<0.05.

[2] = tested on: NGLY1 deficient fibroblasts; assay: ROS levels, CellROX Deep Red Flow Cytometry Assay; type: cell-based, human; details: PT1 72 hrs vs DMSO
Method: as §1

[3] = tested on: NGLY1 deficient fibroblasts; assay: Oxygen consumption rate (OCR), XF96 extracellular flux analyzer; type: cell-based, human; details: PT1 vs DMSO, FIG. 6C
Method: Methods: Oxygen consumption rate (OCR) was measured using an XF96 extracellular flux analyzer (Seahorse Biosciences). Fibroblasts were seeded at 10×10^3 cell/well in 100 ul media containing 8.3 mM glucose and supplemented with 10% fetal bovine serum (FBS) (Fisher Scientific), 1% Penicillin-Streptomycin (10,000 U/mL)(Life Technologies), 1% glutaMAX (Life Technologies), 1% uridine (5 mg/ml) and 1% pyruvate (11 mg/ml) on an XF 96 well plate at 37° C., 5% CO2. The following day the medium was replaced with the mitochondrial stressor media (details above) with or without PT1, A-769662, and AICAR. After 48 hours the stressor media was replaced with 175 μl unbuffered XF base DMEM medium (Fisher Scientific) with the same constituents as the mitochondrial stressor medium and incubated at 37° C. for 30 min for equilibrium before the measurements. OCR Baseline measurements were measured three times, once every five minutes. After the experiment, cell content was estimated by Calcein AM fluorescence intensity (FI) and OCR was calculated as OCR divided by FI.

[4] = tested on: SURF1-deficient fibroblasts; assay: Cell viability by Calcein AM in mitochondrial stressor media; type: cell-based, human; details: SURF1-deficient fibroblasts; FIG. 2A
Method: (§2) Fibroblasts previously derived from four patients with primary mitochondrial disease (Surf1, Complex I, Cox10, Polg), three patients with NGLY1 deficiency and four normal controls were used for the study. All samples were obtained with informed consent and approved by the Stanford IRB. Fibroblasts were maintained in DMEM medium containing 8.3 mM glucose and supplemented with 10% fetal bovine serum (FBS)(Fisher Scientific), 1% Penicillin-Streptomycin (10,000 U/mL)(Life Technologies), 1% glutaMAX (Life Technologies), 1% uridine (5 mg/ml) and 1% pyruvate (11 mg/ml) at 37° C., 5% CO2. For the screening of various compounds, 15×10^3 cells/500 ul media were seeded in quadruplets on 24 well microtiter plates. The following day, the medium was removed, wells washed with PBS and replaced with a mitochondrial stressor media containing DMEM, 1% Penicillin-Streptomycin (10,000 U/mL)(Life Technologies), 10% FCS (Fisher Scientific), 1 mM Galactose (Sigma Aldrich), and 25 μM sodium azide with or without the following compounds: 1 mM AICAR (Medchem Express), 1 mM Metformin (Sigma Aldrich), 100 μM PT1 (Santa Cruz Biotechnology), 100 μ[…] Express). Following treatment with the various compounds, tissue cultures were analyzed for growth, oxygen consumption rate, and ATP levels. Methods: Cell growth was measured by a fluorometric method using Calcein AM (Anaspec). Mitochondrial stressor media was removed, wells washed with PBS and then incubated with 500 ul/well of 800 nM Calcein AM in PBS for 30 min at 37 C, 5% CO2. Cell viability was measured by values obtained using a 485 nm excitation with the Flouroskan Ascent Microplate Fluorometer (Thermo Scientific).

[5] = tested on: COX10-deficient fibroblasts; assay: as above; type: cell-based, human; details: FIG. 2B
Method: as §2

[6] = tested on: POLG-deficient fibroblasts; assay: as above; type: cell-based, human; details: FIG. 2D
Method: as §2

PGC-1α = assay: Gene expression after PT1 treatment; type: cell-based, human; details: 48 hr treatment with PT1; FIG. 5B
[7] = tested on: sodium iodate (SI) induced AMD model; assay: Sodium iodate (SI) induced AMD model: funduscopy, H&E retinal sections, ONL thickness, ERG; type: in vivo, mice
Method: Methods: To generate an AMD model, mice were treated with 100 mg/kg of PT1 (or vehicle) 24 hrs and 12 hrs prior to SI (or vehicle) treatment, then treated every 24 hrs for 3 days post-SI. Both PT1 and SI were delivered by intraperitoneal (IP) injections and animals were phenotyped 3 days post-SI administration. Mice were anesthetized and their pupils dilated using 1% atropine sulfate, 2.5% phenylephrine hydrochloride, and 0.5% proparacaine hydrochloride. Funduscopy was performed using the Micron III small animal retinal imaging AD camera (Phoenix Research Laboratories, INC). Retinal function was evaluated by recording of dark- and light-adapted ERG (Espion E2 System, Diagnosys LLC). Mice were dark adapted overnight before ERG recording, and all procedures were performed in the dark or under dim red light. Mice were anesthetized and their pupils dilated as described above. For the ERG recordings, electrodes were placed on the center of cornea. A ground needle electrode was placed in the base of the tail, and reference needle electrode was placed subdermally between the eyes. The a-wave amplitude was measured from the baseline to the trough of the a-wave, and b-wave amplitude was measured from the trough of the a-wave to the peak of the b-wave.

[8] = tested on: SURF1 deficient fibroblasts; assay: ATP levels, CellTiter-Glo ATP Assay; type: cell-based, human; details: PT1 48 hrs vs DMSO
Method: as §1

[9] = tested on: POLG deficient fibroblasts; assay: ATP levels, CellTiter-Glo ATP Assay; type: cell-based, human; details: PT1 48 hrs vs DMSO
Method: as §1

pAMPK = pAMPK western blot time course in SURF1 deficient fibroblasts; type: cell-based, human
Method: Methods: Western blotting was performed to identify pAMPK levels in cells treated with PT1. Cells were lysed with RIPA buffer supplemented with Na-Orthovanadate, PMSF, and Protease Inhibitor cocktail. Whole cell extracts were fractionated by SDS-PAGE and transferred to a polyvinylidene difluoride membrane using a transfer apparatus according to the manufacturer's protocols (Bio-Rad). After incubation with 5% nonfat milk in TBST (10 mM Tris, pH 8.0, 150 mM NaCl, 0.5% Tween 20) for 60 min, the membrane was washed once with TBST and incubated with antibodies against AMPK (1:1,000), pAMPK (1:1,000), actin (1:10,000) at 4° C. overnight. Membranes were washed three times for 5 min and incubated with a 1:10,000 dilution of horseradish peroxidase-conjugated anti-mouse or anti-rabbit antibodies for 2 h. Blots were washed with TBST three times and developed with the ECL system (Thermo Scientific) according to the manufacturer's protocols.

In the case of `Cc1cc(-c2ccc(C=C3SC(=S)N(c4ccc(Cl)c(C(=O)O)c4)C3=O)o2)c([N+](=O)[O-])cc1C` [PT1], the “reduction in ROS levels” value [1] was 15%, the “reduction in ROS levels” value [2] was 18% and the “improvement in basal respiration (basal OCR)” value [3] was 16%. The survival / viability [4] was “largest improvement”, the survival / viability [5] was “improves survival; also recorded: significantly improved survival” and the survival / viability [6] was “improves survival; also recorded: significantly improved survival”. The “increase in expression of PGC-1α” value (PGC-1α) was 2.4 fold, the “funduscopy, signs of retinal degeneration (white deposits)” value ([7]; +SI, +PT1 vs +SI, 100 mg/kg IP, FIG. 9A, 100 mg/kg) was “improved signs of retinal degeneration; also recorded: Fewer white deposits” and the “H&E retinal sections: ONL thinning” value ([7]; +SI, +PT1 vs +SI, FIG. 9B) was “protection against ONL thinning; also recorded: protects against ONL thinning”. For the same compound, the “H&E retinal sections: melanin debris” value ([7]; +SI, +PT1 vs +SI, FIG. 9B) was “decreases melanin debris”, the “H&E retinal sections: photoreceptor IS/OS morphology” value ([7]; +SI, +PT1 vs +SI, FIG. 9B) was “prevents alterations in photoreceptor IS/OS morphology” and the ONL thickness ([7]; +SI, +PT1 vs +SI, FIG. 9C) was “greater thickness; also recorded: significantly improved”. For the same compound, the “electroretinography, rod responses (scotopic a-wave and b-wave)” value ([7]; +SI, +PT1 vs +SI, FIG. 9D) was “improved electrical response; also recorded: significantly increased rod responses”, the “ONL thickness, PT1 treatment alone” value ([7]; −SI, +PT1 vs −SI) was “does not alter ONL thickness” and the “funduscopy, PT1 treatment alone” value ([7]; −SI, +PT1 vs −SI) was “similar, normal tissue; also recorded: does not alter funduscopy results”. For the same compound, the “increase in ATP production / content” value [8] was 35%, the “increase in ATP production / content” value [9] was 36% and the “time of peak pAMPK levels post PT1 treatment” value (pAMPK) was 24 hours. The “time of return of pAMPK levels to baseline” value (pAMPK) was 48 hours and the “time by which pAMPK levels increase post PT1 treatment” value (pAMPK; pAMPK normalized to actin) was no more than 2 hours.
